Measurements from US20080009418A1, “Selective Inhibitors” (Alchemia LTD., priority 2004, published 2008).

Columns and labels:
[1] = molecular target: T1, Human δ-opioid (DOP) (Homo sapiens, UniProt P41143); assay: Radioligand binding, human δ-opioid (DOP) membranes, FlashPlate, [3H]-Bremazocine; details: compound at 10 μM, [3H]-Bremazocine; for A1: inhibition of radioligand binding: human DOP membranes
T1 construct: purchased Perkin Elmer Biosignal
In short: (§1)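 Cloned human receptor membranes were coated onto FlashPlate wells and incubated with radioligand and compound (added from a 0.5 mM DMSO daughter plate) for 1 hour at room temperature in the dark. Scintillation counting gave percent inhibition, with DMSO defining total and reference ligand defining non-specific binding.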

[2] = molecular target: T2, Human κ-Opioid (KOP) (Homo sapiens, UniProt P41145); assay: Radioligand binding, human κ-opioid (KOP) membranes, filtration, [3H]-Diprenorphine; details: compound at 10 μM, [3H]-Diprenorphine; for A2: inhibition of radioligand binding: human KOP membranes
T2 construct: purchased Perkin Elmer Biosignal
T2 sequence (P41145 whole entry): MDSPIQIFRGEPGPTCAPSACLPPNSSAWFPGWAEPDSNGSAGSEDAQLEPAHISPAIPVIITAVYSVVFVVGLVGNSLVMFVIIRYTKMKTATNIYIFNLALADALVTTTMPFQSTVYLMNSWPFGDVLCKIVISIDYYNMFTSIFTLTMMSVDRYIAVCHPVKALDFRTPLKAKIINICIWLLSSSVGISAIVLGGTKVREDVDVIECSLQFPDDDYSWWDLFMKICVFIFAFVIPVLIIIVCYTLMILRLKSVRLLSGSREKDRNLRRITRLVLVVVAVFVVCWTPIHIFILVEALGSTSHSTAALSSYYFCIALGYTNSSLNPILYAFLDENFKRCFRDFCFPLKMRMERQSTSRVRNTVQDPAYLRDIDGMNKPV
In short: (§2)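 Percent inhibition of radioligand binding measured on recombinant human membranes: NK1 with [125I]-Substance P, KOP with [3H]-Diprenorphine. Incubation 1 h at room temperature, then harvest onto 0.3% PEI-soaked filters, cold Tris-HCl pH 7.4 washes and scintillation counting; non-specific binding from reference ligand wells.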

[3] = molecular target: T3, Human Melanocortin (MC3) (Homo sapiens, UniProt P41968); assay: Radioligand binding, human melanocortin MC3 membranes, FlashPlate, [125I]-NDP-αMSH; details: compound at 10 μM, [125I]-NDP-αMSH; for A3: inhibition of radioligand binding: human MC3 membranes
T3 construct: purchased Perkin Elmer Biosignal
T3 sequence (P41968 whole entry): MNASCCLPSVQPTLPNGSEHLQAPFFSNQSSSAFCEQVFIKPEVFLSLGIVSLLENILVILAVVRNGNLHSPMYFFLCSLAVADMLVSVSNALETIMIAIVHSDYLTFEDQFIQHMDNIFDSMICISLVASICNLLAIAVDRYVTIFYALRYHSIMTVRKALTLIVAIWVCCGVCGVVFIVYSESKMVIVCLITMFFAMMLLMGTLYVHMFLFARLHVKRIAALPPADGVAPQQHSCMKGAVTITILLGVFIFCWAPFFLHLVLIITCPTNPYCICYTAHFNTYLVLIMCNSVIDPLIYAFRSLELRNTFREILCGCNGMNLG
In short: as §1

[4] = molecular target: T4, Human Melanocortin (MC4) (Homo sapiens, UniProt P32245); assay: Radioligand binding, human melanocortin MC4 membranes, FlashPlate, [125I]-NDP-αMSH; details: compound at 10 μM, [125I]-NDP-αMSH; for A4: inhibition of radioligand binding: human MC4 membranes
T4 construct: purchased Perkin Elmer Biosignal
T4 sequence (P32245 whole entry): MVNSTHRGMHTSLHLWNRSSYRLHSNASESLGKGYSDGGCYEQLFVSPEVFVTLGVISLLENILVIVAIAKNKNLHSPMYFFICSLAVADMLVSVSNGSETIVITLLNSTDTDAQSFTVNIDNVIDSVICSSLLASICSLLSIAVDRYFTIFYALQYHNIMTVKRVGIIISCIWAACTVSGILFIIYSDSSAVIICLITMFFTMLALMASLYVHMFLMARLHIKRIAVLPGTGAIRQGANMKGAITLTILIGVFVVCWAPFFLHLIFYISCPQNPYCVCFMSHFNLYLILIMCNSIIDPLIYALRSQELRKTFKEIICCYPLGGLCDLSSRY
In short: as §1

[5] = molecular target: T5, Human melanocortin (MC5) (Homo sapiens, UniProt P33032); assay: Radioligand binding, human melanocortin MC5 membranes, FlashPlate, [125I]-NDP-αMSH; details: compound at 10 μM, [125I]-NDP-αMSH; for A5: inhibition of radioligand binding: human MC5 membranes
T5 construct: purchased Perkin Elmer Biosignal
T5 sequence (P33032 whole entry): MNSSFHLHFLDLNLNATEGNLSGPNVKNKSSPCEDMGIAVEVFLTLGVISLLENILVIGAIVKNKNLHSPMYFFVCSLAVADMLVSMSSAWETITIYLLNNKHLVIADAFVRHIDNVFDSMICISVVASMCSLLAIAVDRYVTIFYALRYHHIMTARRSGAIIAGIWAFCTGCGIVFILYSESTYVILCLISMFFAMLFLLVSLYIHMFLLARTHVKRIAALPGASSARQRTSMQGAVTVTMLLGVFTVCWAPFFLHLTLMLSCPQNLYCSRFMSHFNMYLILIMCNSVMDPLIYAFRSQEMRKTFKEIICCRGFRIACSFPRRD
In short: as §1

[6] = molecular target: T6, Human melanin-concentrating hormone (MCH1) (Homo sapiens, UniProt Q99705); assay: Radioligand binding, human melanin-concentrating hormone MCH1 membranes, FlashPlate, [125I]-S36057; details: compound at 10 μM; for A6: inhibition of radioligand binding: [125I]-S36057, human MCH1 membranes
T6 construct: purchased Perkin Elmer Biosignal
T6 sequence (Q99705 whole entry): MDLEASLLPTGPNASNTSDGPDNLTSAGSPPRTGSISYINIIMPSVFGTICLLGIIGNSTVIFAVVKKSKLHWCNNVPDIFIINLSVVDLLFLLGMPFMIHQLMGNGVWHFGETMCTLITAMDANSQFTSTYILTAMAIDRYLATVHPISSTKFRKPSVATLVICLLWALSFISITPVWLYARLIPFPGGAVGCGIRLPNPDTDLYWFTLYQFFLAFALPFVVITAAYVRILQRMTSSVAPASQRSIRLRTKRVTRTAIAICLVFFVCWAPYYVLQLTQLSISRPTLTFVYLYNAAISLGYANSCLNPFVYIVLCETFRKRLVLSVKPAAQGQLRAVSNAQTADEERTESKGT
In short: as §1

[7] = molecular target: T7, Human μ-opioid (MOP) (Homo sapiens, UniProt P35372); assay: Radioligand binding, human μ-opioid (MOP) membranes, FlashPlate, [3H]-Naloxone; details: compound at 10 μM, [3H]-Naloxone; for A7: inhibition of radioligand binding: human MOP membranes
T7 construct: purchased Perkin Elmer Biosignal
T7 sequence (P35372 whole entry): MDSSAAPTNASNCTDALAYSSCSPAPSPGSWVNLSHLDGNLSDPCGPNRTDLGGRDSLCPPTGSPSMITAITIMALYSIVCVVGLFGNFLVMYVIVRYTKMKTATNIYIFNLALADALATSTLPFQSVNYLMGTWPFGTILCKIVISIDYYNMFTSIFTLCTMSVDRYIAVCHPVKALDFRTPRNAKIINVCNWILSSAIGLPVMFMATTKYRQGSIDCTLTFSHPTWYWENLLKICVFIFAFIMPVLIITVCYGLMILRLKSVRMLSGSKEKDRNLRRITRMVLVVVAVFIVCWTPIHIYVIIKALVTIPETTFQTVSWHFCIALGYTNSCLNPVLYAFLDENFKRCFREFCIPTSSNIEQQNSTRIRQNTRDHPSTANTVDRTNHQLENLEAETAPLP
In short: as §1

[8] = molecular target: T8, Human neurokinin (NK1) (Homo sapiens, UniProt P25103); assay: Radioligand binding, human neurokinin NK1 membranes, filtration, [125I]-Substance P; details: compound at 10 μM, [125I]-Substance P; for A8: inhibition of radioligand binding: human NK1 membranes
T8 construct: purchased Perkin Elmer Biosignal
T8 sequence (P25103 whole entry): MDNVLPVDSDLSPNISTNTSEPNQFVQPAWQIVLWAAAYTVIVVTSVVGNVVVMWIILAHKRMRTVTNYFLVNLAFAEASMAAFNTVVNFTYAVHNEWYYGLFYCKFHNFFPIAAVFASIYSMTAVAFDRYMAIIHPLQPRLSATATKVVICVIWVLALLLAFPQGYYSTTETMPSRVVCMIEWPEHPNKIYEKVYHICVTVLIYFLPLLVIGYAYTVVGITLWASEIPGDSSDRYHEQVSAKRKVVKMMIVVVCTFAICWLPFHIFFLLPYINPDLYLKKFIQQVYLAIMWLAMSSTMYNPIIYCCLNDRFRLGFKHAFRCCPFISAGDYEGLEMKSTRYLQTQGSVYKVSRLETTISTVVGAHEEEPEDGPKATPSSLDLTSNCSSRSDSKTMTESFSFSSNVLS
In short: as §2

[9] = molecular target: T9, Human neuropeptide Y (NPY-Y1) (Homo sapiens, UniProt P25929); assay: Radioligand binding, human neuropeptide Y NPY-Y1 membranes, FlashPlate, [125I]-PYY; details: compound at 10 μM, [125I]-PYY; for A9: inhibition of radioligand binding: human NPY-Y1 membranes
T9 construct: purchased Perkin Elmer Biosignal
T9 sequence (P25929 1-384): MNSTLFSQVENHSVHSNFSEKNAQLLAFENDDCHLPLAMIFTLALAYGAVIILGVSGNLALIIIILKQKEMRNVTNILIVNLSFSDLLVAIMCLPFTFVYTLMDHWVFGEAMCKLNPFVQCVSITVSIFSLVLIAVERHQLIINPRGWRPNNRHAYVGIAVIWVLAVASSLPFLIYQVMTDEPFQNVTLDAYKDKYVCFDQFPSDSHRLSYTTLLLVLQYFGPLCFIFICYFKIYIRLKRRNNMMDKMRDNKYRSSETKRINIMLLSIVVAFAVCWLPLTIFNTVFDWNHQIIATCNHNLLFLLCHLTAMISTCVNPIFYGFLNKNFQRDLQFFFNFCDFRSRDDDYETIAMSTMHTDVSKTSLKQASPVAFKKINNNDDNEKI
In short: as §1

[10] = molecular target: T10, Human opioid (ORL1) (Homo sapiens, UniProt P41146); assay: Radioligand binding, human opioid ORL1 membranes, FlashPlate, [125I]-Nociceptin; details: compound at 10 μM, [125I]-Nociceptin; for A10: inhibition of radioligand binding: human ORL1 membranes
T10 construct: purchased Perkin Elmer Biosignal
T10 sequence (P41146 whole entry): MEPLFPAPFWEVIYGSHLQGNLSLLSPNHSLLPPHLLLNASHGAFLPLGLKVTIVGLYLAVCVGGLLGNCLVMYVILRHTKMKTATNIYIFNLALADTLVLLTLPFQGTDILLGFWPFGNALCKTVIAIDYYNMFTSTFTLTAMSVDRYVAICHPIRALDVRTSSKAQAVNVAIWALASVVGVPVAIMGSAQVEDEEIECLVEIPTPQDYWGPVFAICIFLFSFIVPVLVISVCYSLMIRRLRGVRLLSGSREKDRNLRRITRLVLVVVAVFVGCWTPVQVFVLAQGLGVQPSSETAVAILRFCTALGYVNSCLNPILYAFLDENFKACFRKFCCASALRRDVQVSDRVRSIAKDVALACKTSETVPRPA
In short: as §1

[11] = molecular target: T11, Mouse urotensin (mUR2) (Mus musculus, UniProt Q8VIH9); assay: Radioligand binding, mouse urotensin mUR2 membranes, FlashPlate, [125I]-Urotensin II; details: compound at 10 μM, [125I]-Urotensin II; for A11: inhibition of radioligand binding: mouse mUR2 membranes
T11 construct: purchased Perkin Elmer Biosignal
T11 sequence (Q8VIH9 1-385): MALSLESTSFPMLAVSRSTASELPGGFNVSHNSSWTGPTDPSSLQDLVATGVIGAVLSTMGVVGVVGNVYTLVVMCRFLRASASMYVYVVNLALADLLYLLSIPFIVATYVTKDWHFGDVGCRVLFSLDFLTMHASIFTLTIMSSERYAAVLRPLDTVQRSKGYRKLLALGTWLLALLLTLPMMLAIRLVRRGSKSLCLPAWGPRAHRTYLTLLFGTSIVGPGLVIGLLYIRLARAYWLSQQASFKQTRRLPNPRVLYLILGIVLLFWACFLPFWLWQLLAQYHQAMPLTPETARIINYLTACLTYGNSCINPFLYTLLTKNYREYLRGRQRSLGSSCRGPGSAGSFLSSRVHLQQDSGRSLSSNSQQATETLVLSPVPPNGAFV
In short: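 Cloned mouse urotensin (mUR2) receptor membranes from Perkin Elmer Biosignal were immobilized in FlashPlate microplates using a proprietary coating. Each well got 19.5 μl buffer, then 0.5 μl of DMSO, reference ligand, or compound. Adding 5 μl of [125I]-Urotensin II, diluted to 5× final concentration in binding buffer, started binding. Plates were sealed with TopSeal-A and incubated 1 hour at room temperature in the dark. Wells were counted for 30 seconds each on a TopCount after a 60-second delay, and percentage inhibition was calculated.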

T1 sequence (P41143 whole entry): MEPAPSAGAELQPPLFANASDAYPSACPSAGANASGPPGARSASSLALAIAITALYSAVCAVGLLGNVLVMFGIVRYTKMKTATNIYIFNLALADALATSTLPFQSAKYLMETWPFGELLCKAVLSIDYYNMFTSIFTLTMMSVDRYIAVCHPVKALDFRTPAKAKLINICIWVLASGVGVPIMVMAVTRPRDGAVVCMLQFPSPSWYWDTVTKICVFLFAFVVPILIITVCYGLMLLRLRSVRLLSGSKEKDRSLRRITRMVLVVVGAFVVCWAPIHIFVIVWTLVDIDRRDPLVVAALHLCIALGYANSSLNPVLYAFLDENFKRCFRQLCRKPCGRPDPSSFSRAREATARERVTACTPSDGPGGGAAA

Structure (SMILES)	A1: inhibition of radioligand binding [1]	A2: inhibition of radioligand binding [2]	A4: inhibition of radioligand binding [4]	A5: inhibition of radioligand binding [5]	A6: inhibition of radioligand binding ([6]; 10 µM)	A7: inhibition of radioligand binding [7]	A8: inhibition of radioligand binding [8]	A9: inhibition of radioligand binding [9]	A11: inhibition of radioligand binding [11]	A3: inhibition of radioligand binding [3]	A10: inhibition of radioligand binding [10]	A6: inhibition of radioligand binding [6]	other results
NCCC(=O)NC1C(OCc2ccc3ccccc3c2)OC(COCc2ccc(Cl)cc2)C(O)C1OCc1ccccc1 (single isomer, unassigned) [compound 453]	− (“−” indicates less than 50% inhibition at 10 μM)	− (“−” indicates less than 50% inhibition at 10 μM)	+ (“+” indicates greater than 50% inhibition at 10 μM)	+ (“+” indicates greater than 50% inhibition at 10 μM)	+ (“+” indicates greater than 50% inhibition at 10 μM)	− (“−” indicates less than 50% inhibition at 10 μM)	+ (“+” indicates greater than 50% inhibition at 10 μM)	− (“−” indicates less than 50% inhibition at 10 μM)	− (“−” indicates less than 50% inhibition at 10 μM)	–	–	–	A3: inhibition of radioligand binding ([3]; 10 µM): + (“+” indicates greater than 50% inhibition at 10 μM); A10: inhibition of radioligand binding ([10]; 10 µM): − (“−” indicates less than 50% inhibition at 10 μM)
NCCC(=O)N[C@H]1C(OCc2ccc3ccccc3c2)O[C@H](COCc2ccccc2)[C@@H](O)[C@@H]1OCc1ccc(Cl)cc1 (stereo partly shown) [compound 438]	− (“−” indicates less than 50% inhibition at 10 μM)	− (“−” indicates less than 50% inhibition at 10 μM)	–	–	+ (“+” indicates greater than 50% inhibition at 10 μM)	− (“−” indicates less than 50% inhibition at 10 μM)	+ (“+” indicates greater than 50% inhibition at 10 μM)	− (“−” indicates less than 50% inhibition at 10 μM)	− (“−” indicates less than 50% inhibition at 10 μM)	− (“−” indicates less than 50% inhibition at 10 μM)	− (“−” indicates less than 50% inhibition at 10 μM)	–	A4: inhibition of radioligand binding ([4]; 10 µM): − (“−” indicates less than 50% inhibition at 10 μM); A5: inhibition of radioligand binding ([5]; 10 µM): − (“−” indicates less than 50% inhibition at 10 μM)
N=C(N)NCC(=O)NC1C(OCc2ccc(-c3ccccc3)cc2)OC(COCc2ccc3ccccc3c2)C(O)C1OCc1ccc2ccccc2c1 (stereo not shown) [compound 402]	− (“−” indicates less than 50% inhibition at 10 μM)	− (“−” indicates less than 50% inhibition at 10 μM)	+ (“+” indicates greater than 50% inhibition at 10 μM)	+ (“+” indicates greater than 50% inhibition at 10 μM)	–	− (“−” indicates less than 50% inhibition at 10 μM)	+ (“+” indicates greater than 50% inhibition at 10 μM)	− (“−” indicates less than 50% inhibition at 10 μM)	− (“−” indicates less than 50% inhibition at 10 μM)	+ (“+” indicates greater than 50% inhibition at 10 μM)	+ (“+” indicates greater than 50% inhibition at 10 μM)	+ (“+” indicates greater than 50% inhibition at 10 μM)	–
N=C(N)NCC(=O)NC1C(OCc2ccc(-c3ccccc3)cc2)OC(COCc2ccc3ccccc3c2)C(O)C1OCc1ccc(Cl)cc1 (stereo not shown) [compound 399]	− (“−” indicates less than 50% inhibition at 10 μM)	− (“−” indicates less than 50% inhibition at 10 μM)	+ (“+” indicates greater than 50% inhibition at 10 μM)	+ (“+” indicates greater than 50% inhibition at 10 μM)	–	− (“−” indicates less than 50% inhibition at 10 μM)	+ (“+” indicates greater than 50% inhibition at 10 μM)	− (“−” indicates less than 50% inhibition at 10 μM)	− (“−” indicates less than 50% inhibition at 10 μM)	+ (“+” indicates greater than 50% inhibition at 10 μM)	− (“−” indicates less than 50% inhibition at 10 μM)	− (“−” indicates less than 50% inhibition at 10 μM)	–
NCCCC(=O)NC1C(OCc2ccc(Cl)cc2)OC(COCc2ccc3ccccc3c2)C(O)C1OCc1ccc2ccccc2c1 (single isomer, unassigned) [compound 496]	–	–	–	–	–	–	–	–	–	–	–	–	A1: inhibition of radioligand binding, human δ-opioid (DOP) [1]: − (“−” indicates less than 50% inhibition at 10 μM); A2: inhibition of radioligand binding, human κ-opioid (KOP) [2]: − (“−” indicates less than 50% inhibition at 10 μM); A3: inhibition of radioligand binding, human melanocortin (MC3) [3]: + (“+” indicates greater than 50% inhibition at 10 μM); A4: inhibition of radioligand binding, human melanocortin (MC4) [4]: + (“+” indicates greater than 50% inhibition at 10 μM); A5: inhibition of radioligand binding, human melanocortin (MC5) [5]: + (“+” indicates greater than 50% inhibition at 10 μM); A6: inhibition of radioligand binding, human melanin-concentrating hormone (MCH1) ([6]; [125I]-S36057): + (“+” indicates greater than 50% inhibition at 10 μM); A7: inhibition of radioligand binding, human μ-opioid (MOP) [7]: + (“+” indicates greater than 50% inhibition at 10 μM); A8: inhibition of radioligand binding, human neurokinin (NK1) [8]: + (“+” indicates greater than 50% inhibition at 10 μM); A9: inhibition of radioligand binding, human neuropeptide Y (NPY-Y1) [9]: − (“−” indicates less than 50% inhibition at 10 μM); A10: inhibition of radioligand binding, human opioid (ORL1) [10]: + (“+” indicates greater than 50% inhibition at 10 μM); A11: inhibition of radioligand binding, mouse urotensin (mUR2) [11]: − (“−” indicates less than 50% inhibition at 10 μM)
